# Molecular target: T1, YAP association with TEAD1-4, SMAD7, p73, FOS, TBXS (Homo sapiens, UniProt P46937)
# T1 construct: expressed in transfected cells
# Assay: HA-YAP1 immunoprecipitation from LN229 cells, immunoblot for TEAD1-4 and other transcription factors
# Type: cell-based
# Conditions: LN229 cells expressing HA-YAP, 18 h
# Description: Levels of total YAP were determined via ELISA. […] Immunoprecipitates were immunoblotted for the indicated proteins. […] Cells were treated with the indicated concentrations of inhibitor for 18 h and mRNA extracted for real time RT-PCR analyses. Measurements were performed in quadruplicate and means and+S.D. are shown. […] Cells were treated with (+) or without (−) NSC682769 (100 nM, 18 h) and harvested and separated into cytoplasmic and nuclear cellular fractions. Cytoplasmic versus nuclear material was subsequently immunoblotted for the indicated proteins. […] Values in top right corner of panels correspond to the percentage of nuclear localized YAP. […]
# Protein and mRNA analyses, immunoprecipitation, in vitro bead-coupled inhibitor binding assays and HPLC analyses. […] Antigen-antibody complexes were detected using appropriate horseradish peroxidase-conjugated secondary antibodies (GE Healthcare) and enhanced chemiluminescence (Amersham ECL Prime). […] For quantitative RT-PCR, extraction of RNA was performed using Trizol® (Life Technologies). Total RNA was then quantified and integrity assessed using an Agilent 2100 Bioanalyzer (Agilent Technology). […] SYBR® Green quantitative PCR (Millipore Sigma) was performed in triplicate in 96-well optical plates on an ABI Prism 7000 Sequence Detection System (Life Technologies) according to the manufacturer's instructions. […]
# T1 sequence (P46937 whole entry): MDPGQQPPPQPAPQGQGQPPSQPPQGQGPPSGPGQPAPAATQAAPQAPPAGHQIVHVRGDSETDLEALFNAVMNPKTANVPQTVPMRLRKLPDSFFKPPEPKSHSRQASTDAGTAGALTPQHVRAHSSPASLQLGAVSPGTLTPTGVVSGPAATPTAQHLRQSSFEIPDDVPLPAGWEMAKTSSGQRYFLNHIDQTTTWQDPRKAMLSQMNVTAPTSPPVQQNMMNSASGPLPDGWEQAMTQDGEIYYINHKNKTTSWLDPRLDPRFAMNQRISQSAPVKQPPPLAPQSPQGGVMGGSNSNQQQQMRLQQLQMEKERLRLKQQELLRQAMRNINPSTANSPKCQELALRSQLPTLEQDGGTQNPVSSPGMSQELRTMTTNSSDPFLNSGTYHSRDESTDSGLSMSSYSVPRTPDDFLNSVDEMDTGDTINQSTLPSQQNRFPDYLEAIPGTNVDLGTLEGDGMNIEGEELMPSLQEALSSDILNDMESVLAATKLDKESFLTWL
structure (smiles),measurement,value
COc1ccc(-c2cc(-c3ccccc3)nc3c2CC(=O)Nc2ccccc2-3)cc1OC [NSC682769],Binding of TEAD1-4 to YAP,inhibited the binding of the four TEAD members to YAP
same,"SMAD7, p73, FOS or TBXS association with YAP",no appreciable effects

# Reference: patent US20240108634A1, “COMPOSITIONS AND METHODS FOR INHIBITING YAP” (The United States Government as represented by the …, priority 2021, published 2024)
